The subject of one data set is RXR. As to the kind of experiment: RXR ligand displacement (radiolabeled 9-cis-retinoic acid). It is filed as binding. To be noted: displacement of radiolabeled 9-cis-retinoic acid. The protocol: (§1) FIG. 6A-6E. Activation and inhibition studies with different FKK compounds. (A) PXR activation, LS180 cells (upper), and PXR inhibition, LS180 cells, co-incubation with RIF (lower). (B) AhR activation, AZ-AHR cells (upper), and AhR inhibition, AZ-AHR cells, co-incubation with TCDD (lower). (C) GR activation, AZ-GR cells (upper), and VDR activation, IZ-VDRE cells (lower). (D) TR activation, PZ-GR cells (upper), and AR activation, AIZ-AR cells (lower). (E) Displacement of radiolabeled 9-cis-retinoic acid (RA) by FKK compounds.
(§2) All the synthesized compounds and intermediates were tested for their potential to activate PXR and/or AhR via luciferase assays. The PXR activation assays were performed by co-transfecting full-length expressing human PXR plasmid (91) and p3A4 luciferase reporter (92) in LS180 or Caco-2 cells. AhR activation conducted using stably co-transfected HepG2 reporter cells as previously described (93). […] With the exception of FKK6, there was no significant inhibition of TCDD-induced AhR activation. […] Independent verification of AhR activity of randomly selected compounds—FKK 5, 6 and 9—was performed in a separate laboratory (GHP). Nuclear receptor selectivity was assessed for FKK compounds for GR, ADR, TR and AR using cell-based luciferase assays previously described (93-102). […]

The target in a further data set is T1, AhR (Homo sapiens, UniProt P35869).
T1 sequence (P35869 11-848): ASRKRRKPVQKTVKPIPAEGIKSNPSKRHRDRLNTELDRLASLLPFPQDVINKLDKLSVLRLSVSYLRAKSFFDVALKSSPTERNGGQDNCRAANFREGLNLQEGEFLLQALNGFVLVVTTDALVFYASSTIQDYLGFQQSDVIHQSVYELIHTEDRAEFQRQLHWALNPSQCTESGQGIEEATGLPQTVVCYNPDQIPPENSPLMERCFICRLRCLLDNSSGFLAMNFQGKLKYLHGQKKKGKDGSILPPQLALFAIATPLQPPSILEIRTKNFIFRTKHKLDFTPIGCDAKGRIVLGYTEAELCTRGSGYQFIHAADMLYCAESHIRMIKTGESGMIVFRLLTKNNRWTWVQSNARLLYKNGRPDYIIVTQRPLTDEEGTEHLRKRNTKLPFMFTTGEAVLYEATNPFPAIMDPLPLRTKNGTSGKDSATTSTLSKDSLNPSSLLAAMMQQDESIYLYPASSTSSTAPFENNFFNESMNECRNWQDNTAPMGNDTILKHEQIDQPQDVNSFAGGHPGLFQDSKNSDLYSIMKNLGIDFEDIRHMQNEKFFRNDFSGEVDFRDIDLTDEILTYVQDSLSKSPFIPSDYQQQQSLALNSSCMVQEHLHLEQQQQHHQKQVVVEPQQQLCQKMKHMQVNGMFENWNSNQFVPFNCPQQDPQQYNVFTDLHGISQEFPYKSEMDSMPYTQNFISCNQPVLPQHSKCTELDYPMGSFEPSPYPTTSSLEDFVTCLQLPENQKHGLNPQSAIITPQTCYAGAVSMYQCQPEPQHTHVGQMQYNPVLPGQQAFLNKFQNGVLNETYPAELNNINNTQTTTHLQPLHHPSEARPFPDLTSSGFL
As to the kind of experiment: AhR activation, AZ-AHR (stably co-transfected HepG2) reporter cells. It is filed as cell-based. More on the design: endogenous in cells; host or cells: AZ-AHR (HepG2). To be noted: to a much lesser extent than FKK 2 and 9; FIG. 6B. As to the method: as §1
All the synthesized compounds and intermediates were tested for their potential to activate PXR and/or AhR via luciferase assays. The PXR activation assays were performed by co-transfecting full-length expressing human PXR plasmid (91) and p3A4 luciferase reporter (92) in LS180 or Caco-2 cells. AhR activation conducted using stably co-transfected HepG2 reporter cells as previously described (93). […] With the exception of FKK6, there was no significant inhibition of TCDD-induced AhR activation. […] Independent verification of AhR activity of randomly selected compounds—FKK 5, 6 and 9—was performed in a separate laboratory (GHP). Nuclear receptor selectivity was assessed for FKK compounds for GR, ADR, TR and AR using cell-based luciferase assays previously described (93-102). There was no observed biologically significant (>2-fold) induction of nuclear receptor activity (FIG. 6C). RXR ligand displacement is only significant for FKK1 and FKK8 (FIG. 6D).

Data set [1] relates to PXR target genes (CYP3A4, MDR1). The note with it: human.
Another data set concerns the target T2, PXR (Homo sapiens, UniProt O75469).
T2 sequence (O75469 1-434): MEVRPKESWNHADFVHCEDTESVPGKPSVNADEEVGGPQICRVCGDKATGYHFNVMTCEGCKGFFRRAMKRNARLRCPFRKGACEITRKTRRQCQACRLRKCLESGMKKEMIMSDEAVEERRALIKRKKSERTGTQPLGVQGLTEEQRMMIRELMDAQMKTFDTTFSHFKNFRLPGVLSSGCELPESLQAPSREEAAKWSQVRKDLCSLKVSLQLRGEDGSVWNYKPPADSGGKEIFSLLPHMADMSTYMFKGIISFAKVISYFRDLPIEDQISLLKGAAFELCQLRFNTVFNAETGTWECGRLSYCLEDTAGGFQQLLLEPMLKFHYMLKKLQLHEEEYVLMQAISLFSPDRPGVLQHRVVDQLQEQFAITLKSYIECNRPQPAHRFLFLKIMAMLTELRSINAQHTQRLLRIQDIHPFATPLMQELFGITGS
As to the kind of experiment: PXR inhibition, LS180 cells, co-incubation with RIF. The note with it: FIG. 6A. More on the design: co-transfecting full-length expressing human PXR plasmid (91) and p3A4 luciferase reporter (92) in LS180 or Caco-2 cells; expressed in transfected cells; host or cells: LS180. The format is cell-based. As to the method: as §1, §2

The structures appear in SMILES notation.

In the case of `O=S(=O)(c1ccccc1)n1c(C(O)Cc2cc3ccccc3[nH]2)cc2ccccc21` (stereo not shown) [FKK8], in the data set on RXR, the RXR ligand displacement result was “significant”. On AhR, the AhR activation profile entry is recorded as “variable degrees of dose-dependent AhR activation”. Besides, the “CYP3A4 mRNA induction” value in data set [1] came to 1.5 fold. In addition, the “rifampicin-dependent PXR antagonism (inhibition)” value at PXR is “rifampicin-dependent PXR antagonism (inhibition)”.

The values are drawn from patent US11724998B2, “PXR agonists and uses thereof for gut barrier dysfunction treatment and prevention” (Albert Einstein College of Medicine, priority 2017, dated 2023).
